Experimental findings from ChEMBL document CHEMBL1136905, “Substituted isoxazole analogs of farnesoid X receptor (FXR) agonist GW4064” (Bioorg Med Chem Lett, 2009) are described below.

Data set [1] concerns the target T1, Bile acid receptor (Homo sapiens) (UniProt Q96RI1).
T1 sequence (whole entry): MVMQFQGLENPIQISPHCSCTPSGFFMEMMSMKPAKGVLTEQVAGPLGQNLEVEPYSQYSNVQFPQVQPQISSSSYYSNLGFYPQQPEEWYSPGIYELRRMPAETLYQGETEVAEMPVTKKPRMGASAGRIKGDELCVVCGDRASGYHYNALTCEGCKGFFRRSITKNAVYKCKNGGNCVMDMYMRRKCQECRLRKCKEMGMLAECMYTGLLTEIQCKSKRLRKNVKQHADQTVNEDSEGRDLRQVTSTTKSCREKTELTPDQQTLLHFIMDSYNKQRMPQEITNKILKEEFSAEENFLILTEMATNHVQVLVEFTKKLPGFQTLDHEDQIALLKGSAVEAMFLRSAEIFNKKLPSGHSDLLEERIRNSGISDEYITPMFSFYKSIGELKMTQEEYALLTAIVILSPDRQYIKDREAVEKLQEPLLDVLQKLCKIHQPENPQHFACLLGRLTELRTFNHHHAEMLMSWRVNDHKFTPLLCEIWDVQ
Nature of the data set: Agonist activity at human FXR assessed as SRC1 peptide interaction with receptor ligand binding domain by FRET assay relative to GW-4064.

For data set [2], the target named is T2, Bile acid receptor (Homo sapiens, UniProt Q96RI1).
T2 sequence (Q96RI1 whole entry): T1 sequence (whole entry)
As to the kind of experiment: Agonist activity at human FXR transfected in african green monkey CV1 cells by luciferase reporter gene transient transfection assay. The class given is functional, cell-based, CV-1. Background: In a reporter assay the amount or activity of a reporter protein is the signal.

Data set [3] concerns the target T2, Bile acid receptor. As to the kind of experiment: Agonist activity at human FXR assessed as SRC1 peptide interaction with receptor ligand binding domain by FRET assay.
For data set [4], the target named is T1, Bile acid receptor (Homo sapiens). Nature of the data set: Agonist activity at human FXR transfected in african green monkey CV1 cells by luciferase reporter gene transient transfection assay relative to GW-4064. The class given is functional, cell-based. Conditions: CV-1.
For data set [5], the target named is T2, Bile acid receptor. Nature of the data set: Agonist activity at human FXR assessed as SRC1 coactivator peptide recruitment by cell free FRET assay. The class given is functional.
Data set [6] can be described thus: Terminal half life in iv dosed rat. Conditions: in vivo, read-out: beta t1/2. The class given is ADME, organism-based.
Data set [7] is described as follows: Total clearance in iv dosed rat. Conditions: in vivo. The class given is ADME, organism-based.
Data set [8] in a line: Volume of distribution at steady state in iv dosed rat. Conditions: in vivo, read-out: Vdss. The class given is ADME, organism-based.
The nature of data set [9]: Oral bioavailability in rat. It is filed as ADME, organism-based. Conditions: in vivo.

`CC(C)c1onc(CCc2c(Cl)cccc2Cl)c1COc1ccc(/C=C/c2cccc(C(=O)O)c2)c(Cl)c1`: the %max stood at 105% in data set [1] and 104% in [4]. Further, the results for the EC50 in data set [2] and in [3] were 48 nM and 150 nM, respectively.
For `CC(C)c1onc(COc2cccc3ccccc23)c1COc1ccc(/C=C/c2cccc(C(=O)O)c2)c(Cl)c1` the same measures were 79%, 34%, 1200 nM and 960 nM.
Turning to `CC(C)c1onc(CO)c1COc1ccc(/C=C/c2cccc(C(=O)O)c2)c(Cl)c1`, in data set [1], the %max turned out to be 22%. Also, the EC50 (commonly the concentration at which the effect is half-maximal) in data set [2] is above 10000 nM; in [3], 7800 nM.
In the case of `CC(C)c1onc([C@H]2C[C@@H]2c2c(Cl)cccc2Cl)c1COc1ccc(/C=C/c2cccc(C(=O)O)c2)c(Cl)c1` (relative stereo), the %max in [1] was 38%. For the same molecule, the EC50 was above 10000 nM in data set [5] and 2000 nM in [3].
On to `CC(C)c1onc(COc2cccc(Cl)c2Cl)c1COc1ccc(/C=C/c2cccc(C(=O)O)c2)c(Cl)c1`, for which the %max is 82% in data set [1] and 38% in [4]. The EC50 in [2] was determined as 630 nM; in data set [3] it was 480 nM.
Take `CC(C)c1onc(COc2c(F)cc(F)cc2F)c1COc1ccc(/C=C/c2cccc(C(=O)O)c2)c(Cl)c1`: the values for the %max in data set [1] and in data set [4] were 106% and 95%, respectively. The EC50 in [2] is 300 nM; in [3], 110 nM.
For `CC(C)c1onc(COc2c(F)cccc2Cl)c1COc1ccc(/C=C/c2cccc(C(=O)O)c2)c(Cl)c1`, the %max in data set [1] was found to be 103%; in [4], 121%. The values for the EC50 in [2] and in [3] were 290 nM and 74 nM, respectively.
On to `CC(C)c1onc(COc2c(Cl)cccc2Cl)c1COc1ccc(/C=C/c2cccc(C(=O)O)c2)c(Cl)c1`, for which the results for the %max in data set [1] and in [4] were 102% and 89%, respectively. Also, the EC50 amounted to 89 nM in data set [2] and 78 nM in data set [3]. The half-life in data set [6] is 2.17 h. The clearance (in general, the rate of elimination divided by the concentration) in [7] came out at 20 mL/min/kg. The Vd in [8] turned out to be 1.2 L/kg. For the same molecule, the bioavailability (in general, dose-corrected exposure relative to a reference, in per cent) in data set [9] came out at 9.2%.
`CC(C)c1onc(COc2cc(Cl)cc(Cl)c2)c1COc1ccc(/C=C/c2cccc(C(=O)O)c2)c(Cl)c1`: the %max in data set [1] amounted to 40%. In addition, the EC50 in [5] is above 10000 nM; in data set [3] it was 1100 nM.
For `CC(C)c1onc(CS(=O)(=O)c2c(Cl)cccc2Cl)c1COc1ccc(/C=C/c2cccc(C(=O)O)c2)c(Cl)c1`, the %max in data set [1] stood at 100%; in data set [4], 68%. Besides, the EC50 came to 390 nM in data set [2] and 150 nM in data set [3].
Turning to `CC(C)c1onc(-c2c(Cl)cccc2Cl)c1COc1ccc(/C=C/c2cccc(C(=O)O)c2)c(Cl)c1`, the %max in data set [1] and in data set [4] was 100% each time. Moreover, the clearance in data set [7] is 36 mL/min/kg.
In the case of `CC[C@H](C)c1onc(-c2c(Cl)cccc2Cl)c1COc1ccc(/C=C/c2cccc(C(=O)O)c2)c(Cl)c1`, the values for the %max in [1] and in [4] were 96% and 99%, respectively. The EC50 was 290 nM in data set [2] and 190 nM in [3].
For `O=C(O)c1cccc(/C=C/c2ccc(OCc3c(-c4c(Cl)cccc4Cl)noc3C3CCCC3)cc2Cl)c1` the same measures were 81%, 75%, 240 nM and 560 nM.
For `CC(C)c1onc(COC(C)(C)C)c1COc1ccc(/C=C/c2cccc(C(=O)O)c2)c(Cl)c1` the same measures were 77%, 132%, 600 nM and 660 nM.
Take `Cc1cccc(Cl)c1OCc1noc(C(C)C)c1COc1ccc(/C=C/c2cccc(C(=O)O)c2)c(Cl)c1`: the %max in data set [1] came out at 106%; in data set [4] it was 111%. Also, the results for the EC50 in data set [2] and in [3] were 150 nM and 48 nM, respectively.
For `CC(C)c1onc(COc2ccc3ccccc3c2)c1COc1ccc(/C=C/c2cccc(C(=O)O)c2)c(Cl)c1`, the %max worked out at 65% in data set [1] and 27% in data set [4]. Further, the half-maximal effective concentration (EC50) in data set [2] is 2300 nM; in data set [3], 930 nM.
In the case of `CC(C)c1onc(COc2cccc(Cl)c2)c1COc1ccc(/C=C/c2cccc(C(=O)O)c2)c(Cl)c1`, the %max is 51% in data set [1] and 42% in data set [4]. In addition, the EC50 in data set [5] came to 2000 nM; in data set [3], 310 nM.
Take `Cc1cccc(C)c1OCc1noc(C(C)C)c1COc1ccc(/C=C/c2cccc(C(=O)O)c2)c(Cl)c1`: the %max was found to be 110% in [1] and 118% in data set [4]. The EC50 was found to be 56 nM in [2] and 17 nM in [3].
For `CC(C)c1onc(COc2ccc(Cl)cc2Cl)c1COc1ccc(/C=C/c2cccc(C(=O)O)c2)c(Cl)c1` the same measures were 72%, 39%, 690 nM and 620 nM.
For `CC(C)c1onc(COc2c(F)cccc2F)c1COc1ccc(/C=C/c2cccc(C(=O)O)c2)c(Cl)c1` the same measures were 100%, 112%, 720 nM and 2200 nM.
As to `CC(C)c1onc(COc2ccc(Cl)cc2)c1COc1ccc(/C=C/c2cccc(C(=O)O)c2)c(Cl)c1`, the %max was determined as 58% in data set [1] and 53% in data set [4]. The values for the EC50 in [2] and in data set [3] were 1300 nM and 450 nM, respectively.
For `CC(C)c1onc(CNc2c(Cl)cncc2Cl)c1COc1ccc(/C=C/c2cccc(C(=O)O)c2)c(Cl)c1` the same measures were 68%, 31%, 420 nM and 400 nM.
Consider `CC(C)c1onc(COc2ccccc2Cl)c1COc1ccc(/C=C/c2cccc(C(=O)O)c2)c(Cl)c1`, for which the %max in [1] was found to be 82%; in [4], 71%. Moreover, the values for the EC50 in data set [5] and in data set [3] were 82 nM and 460 nM, respectively.
On to `CC(C)c1onc(COc2ccccc2)c1COc1ccc(/C=C/c2cccc(C(=O)O)c2)c(Cl)c1`, for which the %max was 55% in data set [1] and 27% in [4]. Besides, the EC50 in data set [2] came out at 1200 nM; in data set [3], 1100 nM.
On to `CCC(CC)c1onc(-c2c(Cl)cccc2Cl)c1COc1ccc(/C=C/c2cccc(C(=O)O)c2)c(Cl)c1`, for which the %max is 82% in [1] and 71% in [4]. The EC50 was 280 nM in data set [5] and 2200 nM in data set [3].
For the molecule `CC(C)c1onc(CSc2nnnn2C)c1COc1ccc(/C=C/c2cccc(C(=O)O)c2)c(Cl)c1`, the figures for the %max in data set [1] and in [4] were 59% and 45%, respectively. In addition, the EC50 in [2] was determined as 2100 nM; in [3] it was 930 nM.
For `O=C(O)c1cccc(/C=C/c2ccc(OCc3c(-c4c(Cl)cccc4Cl)noc3C3CCC3)cc2Cl)c1` the same measures were 67%, 100%, 140 nM and 410 nM.
For `CC(C)c1onc(CCCc2ccccc2)c1COc1ccc(/C=C/c2cccc(C(=O)O)c2)c(Cl)c1` the same measures were 44%, 68%, 1200 nM and 4400 nM.
For `CC(C)c1onc(COc2c(Cl)cc(Cl)cc2Cl)c1COc1ccc(/C=C/c2cccc(C(=O)O)c2)c(Cl)c1` the same measures were 101%, 68%, 200 nM and 58 nM.
As to `CC(C)c1onc(Cc2ccccc2)c1COc1ccc(/C=C/c2cccc(C(=O)O)c2)c(Cl)c1`, the %max in data set [1] was found to be 67%; in data set [4] it was 120%. Besides, the EC50 in data set [2] turned out to be 230 nM; in [3] it was 550 nM.
For `CC(C)c1onc(CSc2c(Cl)cccc2Cl)c1COc1ccc(/C=C/c2cccc(C(=O)O)c2)c(Cl)c1` the same measures were 110%, 86%, 100 nM and 51 nM.
For `Cc1cc(Cl)cc(C)c1OCc1noc(C(C)C)c1COc1ccc(/C=C/c2cccc(C(=O)O)c2)c(Cl)c1` the same measures were 99%, 66%, 110 nM and 130 nM.
For `CC(C)c1onc(CCc2ccccc2)c1COc1ccc(/C=C/c2cccc(C(=O)O)c2)c(Cl)c1` the same measures were 96%, 110%, 93 nM and 320 nM.
Consider `CC(C)c1onc(COc2cc(Cl)ccc2Cl)c1COc1ccc(/C=C/c2cccc(C(=O)O)c2)c(Cl)c1`, for which the %max in [1] came out at 83%; in [4], 37%. Besides, the EC50 came to 900 nM in [2] and 1000 nM in data set [3].
For `CC[C@@H](C)c1onc(-c2c(Cl)cccc2Cl)c1COc1ccc(/C=C/c2cccc(C(=O)O)c2)c(Cl)c1` the same measures were 100%, 105%, 93 nM and 105 nM.
In the case of `CC(C)c1onc(COc2ccc(Cl)c(Cl)c2)c1COc1ccc(/C=C/c2cccc(C(=O)O)c2)c(Cl)c1`, the %max in data set [1] was 57%. For the same molecule, the EC50 was above 10000 nM in data set [5] and 1100 nM in data set [3].
